This note sets out measurements from US12565501B2, “Muscarinic acetylcholine M1 receptor antagonists” (Contineum Therapeutics, Inc., priority 2019, dated 2026).

One may read the IC50 as the concentration needed to halve the response being measured.

This assay concerns the target T1, human M1 receptor (Homo sapiens, UniProt P11229).
T1 sequence (P11229 1-460): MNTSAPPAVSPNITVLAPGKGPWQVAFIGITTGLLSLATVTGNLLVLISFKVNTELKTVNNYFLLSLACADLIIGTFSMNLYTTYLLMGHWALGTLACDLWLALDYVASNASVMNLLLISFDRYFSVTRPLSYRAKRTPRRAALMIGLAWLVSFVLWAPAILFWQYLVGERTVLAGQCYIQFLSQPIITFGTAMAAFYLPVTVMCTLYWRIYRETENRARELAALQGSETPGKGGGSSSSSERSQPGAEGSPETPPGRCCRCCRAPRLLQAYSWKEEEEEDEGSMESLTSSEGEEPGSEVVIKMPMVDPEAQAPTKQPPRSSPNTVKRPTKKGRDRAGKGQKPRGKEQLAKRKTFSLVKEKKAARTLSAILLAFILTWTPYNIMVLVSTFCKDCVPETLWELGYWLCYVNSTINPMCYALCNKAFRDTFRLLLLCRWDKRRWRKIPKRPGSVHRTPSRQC
The assay is described as follows: In vitro functional assay of muscarinic acetylcholine receptor activity (aequorin calcium flux, reversal of EC80 acetylcholine response). In kind it is cell-based. To be noted: CHO-K1 cells stably expressing human M1 receptor with aequorin; acetylcholine at EC80; calcium flux (luminescence); read-out: M1 IC50. The method, boiled down:
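Antagonist mode: compound (final 0.1% DMSO) and coelenterazine-loaded M1/aequorin CHO-K1 cells incubated 30 min in the dark before EC80 acetylcholine addition. Calcium flash integrated as 40 s luminescence AUC; IC50 derived from dose-response curves.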

As for `N#Cc1ccc(N2C3CCC2CN(C(=O)COC2(c4ccncc4F)CC2)C3)nc1` [Example 228, 6-(3-(2-(1-(3-fluoropyridin-4-yl)cyclopropoxy)acetyl)-3,8-diazabicyclo[3.2.1]octan-8-yl)nicotinonitrile], the IC50 is 10 to 100 nM. Take `N#Cc1ccc(N2C3CCC2CN(C(=O)COC2(c4cncc(F)c4)CC2)C3)nc1` [Example 229, 6-(3-(2-(1-(5-fluoropyridin-3-yl)cyclopropoxy)acetyl)-3,8-diazabicyclo[3.2.1]octan-8-yl)nicotinonitrile]: the half-inhibitory concentration (IC50) was in the range of 100 to 1000 nM. For `COc1cncc(C2(OCC(=O)N3CC4CCC(C3)N4c3ccc(C#N)cn3)CC2)c1` [Example 230, 6-(3-(2-(1-(5-methoxypyridin-3-yl)cyclopropoxy)acetyl)-3,8-diazabicyclo[3.2.1]octan-8-yl)nicotinonitrile] the value was less than 10 nM; for `N#Cc1ccc(N2C3CCC2CN(C(=O)COC2(c4cccc5nccnc45)CC2)C3)nc1` [Example 231, 6-(3-(2-(1-(quinoxalin-5-yl)cyclopropoxy)acetyl)-3,8-diazabicyclo[3.2.1]octan-8-yl)nicotinonitrile], 10 to 100 nM; for `N#Cc1ccc(N2C3CCC2CN(C(=O)COCC2(c4cccc5ncnn45)CC2)C3)nc1` [Example 232, 6-(3-(2-((1-([1,2,4]triazolo[1,5-a]pyridin-5-yl)cyclopropyl)methoxy)acetyl)-3,8-diazabicyclo[3.2.1]octan-8-yl)nicotinonitrile], less than 10 nM. To `COc1cncc(C2(OCC(=O)N3CC4CCC(C3)N4c3ccc(C#N)cn3)CCC2)c1` [Example 233, 6-(3-(2-(1-(5-methoxypyridin-3-yl)cyclobutoxy)acetyl)-3,8-diazabicyclo[3.2.1]octan-8-yl)nicotinonitrile] belongs less than 10 nM. Consider `N#Cc1ccc(N2C3CCC2CN(C(=O)COC2(c4ccc(F)cc4)CCC2)C3)nc1` [Example 234, 6-(3-(2-(1-(4-fluorophenyl)cyclobutoxy)acetyl)-3,8-diazabicyclo[3.2.1]octan-8-yl)nicotinonitrile], for which the IC50 fell in the range of 10 to 100 nM. As for `N#Cc1ccc(N2C3CCC2CN(C(=O)COC2(c4cccc(F)c4)CCC2)C3)nc1` [Example 235, 6-(3-(2-(1-(3-fluorophenyl)cyclobutoxy)acetyl)-3,8-diazabicyclo[3.2.1]octan-8-yl)nicotinonitrile], the IC50 was in the range of 10 to 100 nM. For `N#Cc1ccc(N2C3CCC2CN(C(=O)COC2(c4ccccc4F)CCC2)C3)nc1` [Example 236, 6-(3-(2-(1-(2-fluorophenyl)cyclobutoxy)acetyl)-3,8-diazabicyclo[3.2.1]octan-8-yl)nicotinonitrile] the value was 100 to 1000 nM.

With `COc1cccc(C2(OCC(=O)N3CC4CCC(C3)N4c3ccc(C#N)cn3)CCC2)c1` [Example 237, 6-(3-(2-(1-(3-methoxyphenyl)cyclobutoxy)acetyl)-3,8-diazabicyclo[3.2.1]octan-8-yl)nicotinonitrile], the 50% inhibitory concentration (IC50) was less than 10 nM. To `N#Cc1ccc(N2C3CCC2CN(C(=O)COC2(c4cccc(OC(F)(F)F)c4)CCC2)C3)nc1` [Example 238, 6-(3-(2-(1-(3-(trifluoromethoxy)phenyl)cyclobutoxy)acetyl)-3,8-diazabicyclo[3.2.1]octan-8-yl)nicotinonitrile] belongs 100 to 1000 nM. To `N#Cc1ccc(N2C3CCC2CN(C(=O)COC2(c4ccc(F)cc4)COC2)C3)nc1` [Example 240, (3-(2-((3-(4-fluorophenyl)oxetan-3-yl)oxy)acetyl)-3,8-diazabicyclo[3.2.1]octan-8-yl)nicotinonitrile] belongs 100 to 1000 nM. For `N#Cc1ccc(N2C3CCC2CN(C(=O)COC2(c4ccc(F)c(F)c4)COC2)C3)nc1` [Example 241, (3-(2-((3-(3,4-difluorophenyl)oxetan-3-yl)oxy)acetyl)-3,8-diazabicyclo[3.2.1]octan-8-yl)nicotinonitrile] the value was 1000 to 10000 nM; for `COc1cccc(C2(OCC(=O)N3CC4CCC(C3)N4c3ccc(C#N)cn3)COC2)c1` [Example 242, (3-(2-((3-(3-methoxyphenyl)oxetan-3-yl)oxy)acetyl)-3,8-diazabicyclo[3.2.1]octan-8-yl)nicotinonitrile], 10 to 100 nM; for `COc1cncc(C2(OCC(=O)N3CC4CCC(C3)N4c3ccc(C#N)cn3)COC2)c1` [Example 243, 6-(3-(2-((3-(5-methoxypyridin-3-yl)oxetan-3-yl)oxy)acetyl)-3,8-diazabicyclo [3.2.1]octan-8-yl)nicotinonitrile], 100 to 1000 nM. For the molecule `COc1cc(C2(OCC(=O)N3CC4CCC(C3)N4c3ccc(C#N)cn3)COC2)ccn1` [Example 244, 6-(3-(2-((3-(2-methoxypyridin-4-yl)oxetan-3-yl)oxy)acetyl)-3,8-diazabicyclo[3.2.1]octan-8-yl)nicotinonitrile], the IC50 was 1000 to 10000 nM. With `N#Cc1ccc(N2C3CCC2CN(C(=O)COC2(c4cccnc4)CCC2)C3)nc1` [Example 245, 6-(3-(2-(1-(pyridin-3-yl)cyclobutoxy)acetyl)-3,8-diazabicyclo[3.2.1]octan-8-yl)nicotinonitrile], the IC50 fell in the range of 100 to 1000 nM.

Take `N#Cc1ccc(N2C3CCC2CN(C(=O)COC2(c4ccccn4)CCC2)C3)nc1` [Example 246, 6-(3-(2-(1-(pyridin-2-yl)cyclobutoxy)acetyl)-3,8-diazabicyclo[3.2.1]octan-8-yl)nicotinonitrile]: the 50% inhibitory concentration (IC50) was 1000 to 10000 nM. For `N#Cc1ccc(N2C3CCC2CN(C(=O)COC2(c4ccncc4F)CCC2)C3)nc1` [Example 247, 6-(3-(2-(1-(3-fluoropyridin-4-yl)cyclobutoxy)acetyl)-3,8-diazabicyclo[3.2.1]octan-8-yl)nicotinonitrile] the value was less than 10 nM; for `N#Cc1ccc(N2C3CCC2CN(C(=O)COC2(c4cc(F)ccn4)CCC2)C3)nc1` [Example 248, 6-(3-(2-(1-(4-fluoropyridin-2-yl)cyclobutoxy)acetyl)-3,8-diazabicyclo[3.2.1]octan-8-yl)nicotinonitrile], 100 to 1000 nM. As for `N#Cc1ccc(N2C3CCC2CN(C(=O)COC2(c4ccc(F)cn4)CCC2)C3)nc1` [Example 249, 6-(3-(2-(1-(5-fluoropyridin-2-yl)cyclobutoxy)acetyl)-3,8-diazabicyclo[3.2.1]octan-8-yl)nicotinonitrile], the IC50 fell in the range of 10 to 100 nM. With `N#Cc1ccc(N2C3CCC2CN(C(=O)COC2(c4cncc(F)c4)CCC2)C3)nc1` [Example 251, 6-(3-(2-(1-(5-fluoropyridin-3-yl)cyclobutoxy)acetyl)-3,8-diazabicyclo[3.2.1]octan-8-yl)nicotinonitrile], the IC50 was 100 to 1000 nM. For `COc1cc(C2(OCC(=O)N3CC4CCC(C3)N4c3ccc(C#N)cn3)CCC2)ccn1` [Example 252, 6-(3-(2-(1-(2-methoxypyridin-4-yl)cyclobutoxy)acetyl)-3,8-diazabicyclo[3.2.1]octan-8-yl)nicotinonitrile] the value was 10 to 100 nM. For `COc1cccc(C2(OCC(=O)N3CC4CCC(C3)N4c3ccc(C#N)cn3)CCC2)n1` [Example 253, 6-(3-(2-(1-(6-methoxypyridin-2-yl)cyclobutoxy)acetyl)-3,8-diazabicyclo[3.2.1]octan-8-yl)nicotinonitrile] the value was less than 10 nM. In the case of `COc1ncccc1C1(OCC(=O)N2CC3CCC(C2)N3c2ccc(C#N)cn2)CCC1` [Example 254, 6-(3-(2-(1-(2-methoxypyridin-3-yl)cyclobutoxy)acetyl)-3,8-diazabicyclo[3.2.1]octan-8-yl)nicotinonitrile], the IC50 is less than 10 nM. To `COc1ccnc(C2(OCC(=O)N3CC4CCC(C3)N4c3ccc(C#N)cn3)CCC2)c1` [Example 255, 6-(3-(2-(1-(4-methoxypyridin-2-yl)cyclobutoxy)acetyl)-3,8-diazabicyclo[3.2.1]octan-8-yl)nicotinonitrile] belongs less than 10 nM. For the molecule `COc1ccc(C2(OCC(=O)N3CC4CCC(C3)N4c3ccc(C#N)cn3)CCC2)nc1` [Example 256, 6-(3-(2-(1-(5-methoxypyridin-2-yl)cyclobutoxy)acetyl)-3,8-diazabicyclo[3.2.1]octan-8-yl)nicotinonitrile], the 50% inhibitory concentration (IC50) lay in the range of 1000 to 10000 nM. To `COc1ccc(C2(OCC(=O)N3CC4CCC(C3)N4c3ccc(C#N)cn3)CCC2)cn1` [Example 257, 6-(3-(2-(1-(6-methoxypyridin-3-yl)cyclobutoxy)acetyl)-3,8-diazabicyclo[3.2.1]octan-8-yl)nicotinonitrile] belongs 1000 to 10000 nM. Consider `COc1ccncc1C1(OCC(=O)N2CC3CCC(C2)N3c2ccc(C#N)cn2)CCC1` [Example 258, 6-(3-(2-(1-(4-methoxypyridin-3-yl)cyclobutoxy)acetyl)-3,8-diazabicyclo[3.2.1]octan-8-yl)nicotinonitrile], for which the 50% inhibitory concentration (IC50) is less than 10 nM. As for `CCOc1cncc(C2(OCC(=O)N3CC4CCC(C3)N4c3ccc(C#N)cn3)CCC2)c1` [Example 259, 6-(3-(2-(1-(5-ethoxypyridin-3-yl)cyclobutoxy)acetyl)-3,8-diazabicyclo[3.2.1]octan-8-yl)nicotinonitrile], the IC50 was 10 to 100 nM. For `N#Cc1ccc(N2C3CCC2CN(C(=O)COC2(c4cncnc4)CCC2)C3)nc1` [Example 262, 6-(3-(2-(1-(pyrimidin-5-yl)cyclobutoxy)acetyl)-3,8-diazabicyclo[3.2.1]octan-8-yl)nicotinonitrile] the value was 100 to 1000 nM.
